Assay results as given in US7750003B2, “Compounds-943” (AstraZeneca AB, priority 2006, dated 2010).

System: phosphorylation of Serine 473 in Akt in MDA-MB-468 human breast adenocarcinoma cells
Test: In vitro phospho-Ser473 Akt assay (Test (c))
Type: cell-based
Conditions: Homo sapiens, MDA-MB-468, 2 h, MDA-MB-468 cells, 2 hours incubation; read-out: Test (c): IC50 versus Serine 473 in Akt
In short: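 MDA-MB-468 cells (15000/well, adhered overnight) treated with compound for 2 h at 37 °C, 5% CO2. After formaldehyde fixation, permeabilisation and blocking, phospho-Akt Ser473 immunostained with Alexafluor488 secondary and quantified by laser-scanning imaging (Acumen Explorer); IC50 from fluorescence dose–response.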

Row | Compound | IC50 [nM]
1 | CNC(=O)Nc1ccc(-c2nc(N3CCOC[C@@H]3C)cc(C(C)(C)S(=O)(=O)C(C)C)n2)cc1 [Example 60i, 3-methyl-1-[4-[4-[(3S)-3-methylmorpholin-4-yl]-6-(2-propan-2-ylsulfonylpropan-2-yl)pyrimidin-2-yl]phenyl]urea] | 120
2 | CCNC(=O)Nc1ccc(-c2nc(N3CCOC[C@@H]3C)cc(C(C)(C)S(=O)(=O)C(C)C)n2)cc1 [Example 60j, 1-ethyl-3-[4-[4-[(3S)-3-methylmorpholin-4-yl]-6-(2-propan-2-ylsulfonylpropan-2-yl)pyrimidin-2-yl]phenyl]urea] | 190
3 | CC(C)NC(=O)Nc1ccc(-c2nc(N3CCOC[C@@H]3C)cc(C(C)(C)S(=O)(=O)C(C)C)n2)cc1 [Example 60k, 1-[4-[4-[(3S)-3-methylmorpholin-4-yl]-6-(2-propan-2-ylsulfonyl-propan-2-yl)pyrimidin-2-yl]phenyl]-3-propan-2-yl-urea] | 180
4 | CC(C)S(=O)(=O)C(C)(C)c1cc(N2CCOC[C@@H]2C)nc(-c2ccc(NC(=O)NC3CC3)cc2)n1 [Example 60l, 3-cyclopropyl-1-[4-[4-[(3S)-3-methylmorpholin-4-yl]-6-(2-propan-2-ylsulfonylpropan-2-yl)pyrimidin-2-yl]phenyl]urea] | 64
5 | CC(C)S(=O)(=O)C(C)(C)c1cc(N2CCOC[C@@H]2C)nc(-c2ccc(NC(=O)NC3CCC3)cc2)n1 [Example 60m, 3-cyclobutyl-1-[4-[4-[(3S)-3-methylmorpholin-4-yl]-6-(2-propan-2-ylsulfonylpropan-2-yl)pyrimidin-2-yl]phenyl]urea] | 59
6 | CC(C)S(=O)(=O)C(C)(C)c1cc(N2CCOC[C@@H]2C)nc(-c2ccc(NC(=O)NCCO)cc2)n1 [Example 60n, 3-(2-hydroxyethyl)-1-[4-[4-[(3S)-3-methylmorpholin-4-yl]-6-(2-propan-2-ylsulfonylpropan-2-yl)pyrimidin-2-yl]phenyl]urea] | 150
7 | CC(C)S(=O)(=O)C(C)(C)c1cc(N2CCOC[C@@H]2C)nc(-c2ccc(NC(=O)NC(C)(C)CO)cc2)n1 [Example 60o, 3-(1-hydroxy-2-methyl-propan-2-yl)-1-[4-[4-[(3S)-3-methylmorpholin-4-yl]-6-(2-propan-2-ylsulfonylpropan-2-yl)pyrimidin-2-yl]phenyl]urea] | 86
8 | CC(C)S(=O)(=O)C(C)(C)c1cc(N2CCOC[C@@H]2C)nc(-c2ccc(NC(=O)NCCN(C)C)cc2)n1 [Example 60p, 3-(2-dimethylaminoethyl)-1-[4-[4-[(3S)-3-methylmorpholin-4-yl]-6-(2-propan-2-ylsulfonylpropan-2-yl)pyrimidin-2-yl]phenyl]urea] | 140
9 | CCCNC(=O)Nc1ccc(-c2nc(N3CCOC[C@@H]3C)cc(C(C)(C)S(=O)(=O)C(C)C)n2)cc1 [Example 60q, 3-[4-[4-[(3S)-3-methylmorpholin-4-yl]-6-(2-propan-2-ylsulfonylpropan-2-yl)pyrimidin-2-yl]phenyl]-1-propyl-urea] | 160
10 | CC(C)CNC(=O)Nc1ccc(-c2nc(N3CCOC[C@@H]3C)cc(C(C)(C)S(=O)(=O)C(C)C)n2)cc1 [Example 60r, 1-[4-[4-[(3S)-3-methylmorpholin-4-yl]-6-(2-propan-2-ylsulfonylpropan-2-yl)pyrimidin-2-yl]phenyl]-3-(2-methylpropyl)urea] | 210
11 | CC(C)S(=O)(=O)C(C)(C)c1cc(N2CCOC[C@@H]2C)nc(-c2ccc(NC(=O)NCCCO)cc2)n1 [Example 60s, 3-(3-hydroxypropyl)-1-[4-[4-[(3S)-3-methylmorpholin-4-yl]-6-(2-propan-2-ylsulfonylpropan-2-yl)pyrimidin-2-yl]phenyl]urea] | 300
12 | CC(C)S(=O)(=O)C(C)(C)c1cc(N2CCOC[C@@H]2C)nc(-c2ccc(NC(=O)Nc3ccc(C(F)(F)F)cc3)cc2)n1 [Example 60t, 1-[4-[4-[(3S)-3-methylmorpholin-4-yl]-6-(2-propan-2-ylsulfonylpropan-2-yl)pyrimidin-2-yl]phenyl]-3-[4-(trifluoromethyl)phenyl]urea] | 1400
13 | CC(C)S(=O)(=O)C(C)(C)c1cc(N2CCOC[C@@H]2C)nc(-c2ccc(NC(=O)Nc3cnn(C)c3)cc2)n1 [Example 60v, 1-[4-[4-[(3S)-3-methylmorpholin-4-yl]-6-(2-propan-2-ylsulfonylpropan-2-yl)pyrimidin-2-yl]phenyl]-3-(1-methylpyrazol-4-yl)urea] | 270
14 | C[C@H]1COCCN1c1cc(CS(=O)(=O)c2ccc(F)cc2)nc(-c2ccc(NC(=O)NC3CCC3)cc2)n1 [Example 61, 3-Cyclobutyl-1-[4-[4-[(4-fluorophenyl)sulfonylmethyl]-6-[(3S)-3-methylmorpholin-4-yl]pyrimidin-2-yl]phenyl]urea] | 330
15 | CCNC(=O)Nc1ccc(-c2nc(CS(=O)(=O)c3ccc(F)cc3)cc(N3CCOC[C@@H]3C)n2)cc1 [Example 61a, 1-ethyl-3-[4-[4-[(4-fluorophenyl)sulfonylmethyl]-6-[(3S)-3-methylmorpholin-4-yl]pyrimidin-2-yl]phenyl]urea] | 750
16 | CC(C)NC(=O)Nc1ccc(-c2nc(CS(=O)(=O)c3ccc(F)cc3)cc(N3CCOC[C@@H]3C)n2)cc1 [Example 61b, 1-[4-[4-[(4-fluorophenyl)sulfonylmethyl]-6-[(3S)-3-methylmorpholin-4-yl]pyrimidin-2-yl]phenyl]-3-propan-2-yl-urea] | 38
17 | C[C@H]1COCCN1c1cc(CS(=O)(=O)c2ccc(F)cc2)nc(-c2ccc(NC(=O)NCCO)cc2)n1 [Example 61c, 1-[4-[4-[(4-fluorophenyl)sulfonylmethyl]-6-[(3S)-3-methylmorpholin-4-yl]pyrimidin-2-yl]phenyl]-3-(2-hydroxyethyl)urea] | 410
18 | C[C@H]1COCCN1c1cc(CS(=O)(=O)c2ccc(F)cc2)nc(-c2ccc(NC(=O)NC(C)(C)CO)cc2)n1 [Example 61d, 1-[4-[4-[(4-fluorophenyl)sulfonylmethyl]-6-[(3S)-3-methylmorpholin-4-yl]pyrimidin-2-yl]phenyl]-3-(1-hydroxy-2-methyl-propan-2-yl)urea] | 180
19 | C[C@H]1COCCN1c1cc(CS(=O)(=O)c2ccc(F)cc2)nc(-c2ccc(NC(=O)NCCN(C)C)cc2)n1 [Example 61e, 3-(2-dimethylaminoethyl)-1-[4-[4-[(4-fluorophenyl)sulfonylmethyl]-6-[(3S)-3-methylmorpholin-4-yl]pyrimidin-2-yl]phenyl]urea] | 120
20 | CC(C)CNC(=O)Nc1ccc(-c2nc(CS(=O)(=O)c3ccc(F)cc3)cc(N3CCOC[C@@H]3C)n2)cc1 [Example 61g, 1-[4-[4-[(4-fluorophenyl)sulfonylmethyl]-6-[(3S)-3-methylmorpholin-4-yl]pyrimidin-2-yl]phenyl]-3-(2-methylpropyl)urea] | 450
21 | C[C@H]1COCCN1c1cc(CS(=O)(=O)c2ccc(F)cc2)nc(-c2ccc(NC(=O)NCCCO)cc2)n1 [Example 61h, 1-[4-[4-[(4-fluorophenyl)sulfonylmethyl]-6-[(3S)-3-methylmorpholin-4-yl]pyrimidin-2-yl]phenyl]-3-(3-hydroxypropyl)urea] | 790
22 | CNC(=O)Nc1ccc(-c2nc(N3CCOC[C@@H]3C)cc(C(C)(C)S(=O)(=O)c3ccc(F)cc3)n2)cc1 [Example 61k, 1-[4-[4-[2-(4-fluorophenyl)sulfonylpropan-2-yl]-6-[(3S)-3-methylmorpholin-4-yl]pyrimidin-2-yl]phenyl]-3-methyl-urea] | 120
23 | CCNC(=O)Nc1ccc(-c2nc(N3CCOC[C@@H]3C)cc(C(C)(C)S(=O)(=O)c3ccc(F)cc3)n2)cc1 [Example 61l, 1-ethyl-3-[4-[4-[2-(4-fluorophenyl)sulfonylpropan-2-yl]-6-[(3S)-3-methylmorpholin-4-yl]pyrimidin-2-yl]phenyl]urea] | 99
24 | CC(C)NC(=O)Nc1ccc(-c2nc(N3CCOC[C@@H]3C)cc(C(C)(C)S(=O)(=O)c3ccc(F)cc3)n2)cc1 [Example 61m, 1-[4-[4-[2-(4-fluorophenyl)sulfonylpropan-2-yl]-6-[(3S)-3-methylmorpholin-4-yl]pyrimidin-2-yl]phenyl]-3-propan-2-yl-urea] | 30
25 | C[C@H]1COCCN1c1cc(C(C)(C)S(=O)(=O)c2ccc(F)cc2)nc(-c2ccc(NC(=O)NC3CCC3)cc2)n1 [Example 61n, 3-cyclobutyl-1-[4-[4-[2-(4-fluorophenyl)sulfonylpropan-2-yl]-6-[(3S)-3-methylmorpholin-4-yl]pyrimidin-2-yl]phenyl]urea] | 38
26 | C[C@H]1COCCN1c1cc(C(C)(C)S(=O)(=O)c2ccc(F)cc2)nc(-c2ccc(NC(=O)NCCN(C)C)cc2)n1 [Example 61o, 3-(2-dimethylaminoethyl)-1-[4-[4-[2-(4-fluorophenyl)sulfonylpropan-2-yl]-6-[(3S)-3-methylmorpholin-4-yl]pyrimidin-2-yl]phenyl]urea] | 45
27 | C[C@H]1COCCN1c1cc(C(C)(C)S(=O)(=O)c2ccc(F)cc2)nc(-c2ccc(NC(=O)NC3CC3)cc2)n1 [Example 61q, 3-cyclopropyl-1-[4-[4-[2-(4-fluorophenyl)sulfonylpropan-2-yl]-6-[(3S)-3-methylmorpholin-4-yl]pyrimidin-2-yl]phenyl]urea] | 77
28 | C[C@H]1COCCN1c1cc(C(=O)N2CCOCC2)nc(-c2ccc(NC(=O)NC3CC3)cc2)n1 [Example 63, 3-Cyclopropyl-1-[4-[4-[(3S)-3-methylmorpholin-4-yl]-6-(morpholine-4-carbonyl)pyrimidin-2-yl]phenyl]urea] | 410
29 | C[C@H]1COCCN1c1cc(C(=O)N2CCCNCC2)nc(-c2ccc(NC(=O)NC3CC3)cc2)n1 [Example 63a, 3-cyclopropyl-1-[4-[4-(1,4-diazepane-1-carbonyl)-6-[(3S)-3-methylmorpholin-4-yl]pyrimidin-2-yl]phenyl]urea] | 92
30 | C[C@H]1COCCN1c1cc(C(=O)N2CCS(=O)(=O)CC2)nc(-c2ccc(NC(=O)NC3CC3)cc2)n1 [Example 63b, 3-cyclopropyl-1-[4-[4-(1,1-dioxo1,4-thiazinane-4-carbonyl)-6-[(3S)-3-methylmorpholin-4-yl]pyrimidin-2-yl]phenyl]urea] | 500
